Series [1] deals with MMP-9 (Homo sapiens, UniProt P14780). Nature of the series: MMP-9 selectivity assay. Type of series: biochemical. Conditions: human MMP-9. As for the experimental part: Selectivity of compound inhibition was evaluated against other proteases at concentrations between 0.4 and 200 μM. Activity against rabbit angiotensin-converting enzyme (ACE, Sigma) was assessed using 10 μM fluorogenic substrate Abz-Phe-Arg-Lys(Dnp)-P (Enzo Life Sciences) in 100 mM Tris-HCl pH 7, 50 mM NaCl, 10 μM Zn SO4. Activity against human matrix metalloproteases (MMP)-2 and MMP-9 was assessed in 50 mM HEPES pH 7.5, 10 mM CaCl2, 0.01% Triton X-100 using 4 μM fluorogenic substrate Mca-Pro-Leu-Gly-Leu-Dpa-Ala-Arg-NH2 (Enzo Life Sciences). Activity against MMP-1 and MMP-13 was assessed in 25 mM HEPES pH 7.5, 100 mM NaCl, 100 mM CaCl2, 0.0005% Brij using 7.5 μM fluorogenic substrate Mca-Lys-Pro-Leu-Gly-Leu-Dpa-Ala-Arg-NH2 (Sigma) for MMP-1 and 1.25 μM fluorogenic substrate Mca-Pro-Cha-Gly-Nva-His-Ala-Dpa-NH2 (Millipore) for MMP-13. Activity against human neutrophil elastase (HNE, Enzo Life Sciences) was assessed in 100 mM HEPES pH 7.5, 500 mM NaCl, 0.01% of Triton X-100 using 100 μM fluorogenic substrate MeOSuc-AAPV-AMC (Enzo Life Sciences).

A short description of series [2]: Plasma protein binding by equilibrium dialysis. Format: in vitro ADME. Conditions: mouse plasma, 10 μM compound; read-out: PPB (mouse) % bound (converted). As for the experimental part: Mouse plasma protein binding (PPB) was determined by equilibrium dialysis with 10 μM compound over 4 h at 37 °C. Compound recoveries were determined by HPLC-MS/MS.
Series [3] deals with T1, secreted LasB in P. aeruginosa PAO1-infected THP-1 macrophages (Pseudomonas aeruginosa, UniProt P14756).
T1 construct: The mature LasB protein is a 33 kDa metalloprotease, which is secreted from P. aeruginosa; endogenous in cells; host or cells: P. aeruginosa PAO1 infecting human THP-1 macrophages (MOI 10:1); supernatant after 2 h
In words: LasB activity (Sub115 hydrolysis) in supernatants of P. aeruginosa-infected THP-1 macrophages. Type of series: cell-based. Conditions: PAO1-infected THP-1 macrophages, 2 h, inhibitor at 4 μM. As for the experimental part: Further to showing in vitro inhibition of LasB-mediated pro-IL-1β proteolysis, experiments were performed to determine the effect of compounds 12 and 16 on IL-1β activation and functionality in human macrophage cell cultures infected with P. aeruginosa PAO1, or an isogenic lasB deletion mutant thereof (ΔlasB). In these experiments, the levels of LasB activity in culture supernatants were measured via hydrolysis of the Sub115 fluorescent peptide, while the effect of LasB activity on IL-1β activation (functionality) was measured using a luciferase reporter cell line sensitive to IL-1β induction (Figure 3).
Human THP-1 macrophages were cultured by conventional methods then, pre-infection, culture media were replaced by RPMI lacking phenol red and antibiotics. Compounds VX-765 (caspase-1 inhibitor, developed by Vertex) and/or LasB inhibitors were added, immediately followed by inoculation with P. aeruginosa PAO1 or an isogenic lasB deletion mutant (ΔlasB), previously grown in Luria broth to late exponential phase (OD600 = 1.2) then washed and diluted in PBS, at a multiplicity of infection (MOI) of 10 to 1. After 2 h post-infection, 50 μL aliquots of supernatant were removed and used to quantitate both LasB activity and IL-1β functionality. To determine LasB activity, 50 μL of supernatant was added to Sub115 IL-1β peptide and hydrolysis of Sub115 was monitored spectrophotometrically with excitation at 355 nm and emission at 450 nm, as described above. Results were expressed as relative fluorescence units (RFU).
In the first variation, experimental infections were performed with P. aeruginosa PAO1 and ΔlasB bacteria incubated with varying quantities of inhibitor at final concentrations ranging from 0.5 to 8 μM. In the second, cells were treated and infected in the same manner and also treated with 5 μM VX-765 to provide a control for IL-1β activation by the inflammasome pathway.

A short description of series [4]: Mouse pharmacokinetics, lung epithelial lining fluid (ELF). Type of series: in vivo. Conditions: for ELF concentration (C0) relative to LasB Ki: 10 mg/kg IV; for Kp / C0 / AUC(0-t) / clearance / half-life: female, ICR (CD-1); for Kp: lung epithelial lining fluid (ELF) and plasma, iv, read-out: lung penetration (AUClast ELF/AUClast plasma); for Kp / lung penetration (AUClast plasma/AUClast ELF): 10 mg/kg; for Kp / C0 / AUC(0-t) / clearance / half-life / lung penetration (AUClast plasma/AUClast ELF): single 10 mg/kg IV dose; for C0 / AUC(0-t) / clearance / half-life: lung epithelial lining fluid (ELF), epithelial lining fluid; for AUC(0-t): read-out: ELF AUClast; for clearance: read-out: ELF CL; for half-life: read-out: ELF t1/2 (converted). The procedure: The PK parameters of compounds 12 and 16 were investigated in both plasma and lung epithelial lining fluid (ELF) after intravenous (IV) administration of compounds at 10 mg/kg in mice (Figure 4 and Table 5). […] Accordingly, these levels of lung penetration (9.5 and 5.2%, respectively) warranted the evaluation of the compounds in an animal model of lung infection using IV dosing.
Unrestrained, nonanesthetized mice (Female ICR (CD-1); Age 5–6 weeks; Size 22 ± 2 g; specific pathogen-free (SPF)) were injected IV with test article formulations via the tail vein. Animals were sacrificed by cardiac puncture under CO2 euthanasia at 0.08, 0.25, 1, 2, 4, 8, and 24 h post dosing. Blood was drawn into tubes coated with EDTA-K3, mixed gently and plasma was then harvested and kept frozen at −70 °C until further processing. To collect […] (BALF), 0.5 mL of PBS was administered once through a tracheal cannula after which about 0.2 to 0.3 mL of BALF was obtained. The BALF was kept on ice and centrifuged within 1 h of collection and the supernatant was harvested and kept frozen at −70 °C. Plasma and BALF samples were analyzed by LC-MS/MS (AB SCIEX API 3000 mass spectrometer). The apparent ELF volume of each BALF sample was estimated using urea as an endogenous marker of the ELF dilution. The urea concentrations in BALF and plasma samples were determined with the QuantiChrom Urea Assay Kit (DIUR-100) (BioAssay Systems) following the manufacturer’s protocol. For each BALF sample, the drug concentration in ELF was calculated as follows: drug concentrationELF = drug concentrationBALF × (urea concentrationplasma/urea concentrationBALF). The PK parameters of each compound after IV dosing (t1/2, C0, AUClast, and CL) were obtained from the noncompartmental analysis (NCA) of the plasma data using WinNonlin.

A value given as a limit tells only on which side of the number the result lay.

Two compounds from paper PMC9926489, “Chemical Optimization of Selective Pseudomonas aeruginosa LasB Elastase Inhibitors and Their Impact on LasB-Mediated Activation of IL-1β in Cellular and Animal Infection Models” (ACS Infectious Diseases, 2023) can be followed below.

Broadly, the IC50 is the concentration needed to halve the response being measured. Read a low IC50 as greater potency in that assay.

T1 sequence (P14756 198-498): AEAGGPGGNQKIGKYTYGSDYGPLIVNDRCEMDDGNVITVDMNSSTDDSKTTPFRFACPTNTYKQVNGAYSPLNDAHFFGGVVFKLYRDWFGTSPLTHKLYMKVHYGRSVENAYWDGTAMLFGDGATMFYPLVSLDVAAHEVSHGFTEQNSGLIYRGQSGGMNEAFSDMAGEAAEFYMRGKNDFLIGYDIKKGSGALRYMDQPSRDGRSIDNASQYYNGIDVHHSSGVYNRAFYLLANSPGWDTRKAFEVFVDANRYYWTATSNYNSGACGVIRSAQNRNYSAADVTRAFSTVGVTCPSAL
Chain of MMP-9 (P14780 94-707): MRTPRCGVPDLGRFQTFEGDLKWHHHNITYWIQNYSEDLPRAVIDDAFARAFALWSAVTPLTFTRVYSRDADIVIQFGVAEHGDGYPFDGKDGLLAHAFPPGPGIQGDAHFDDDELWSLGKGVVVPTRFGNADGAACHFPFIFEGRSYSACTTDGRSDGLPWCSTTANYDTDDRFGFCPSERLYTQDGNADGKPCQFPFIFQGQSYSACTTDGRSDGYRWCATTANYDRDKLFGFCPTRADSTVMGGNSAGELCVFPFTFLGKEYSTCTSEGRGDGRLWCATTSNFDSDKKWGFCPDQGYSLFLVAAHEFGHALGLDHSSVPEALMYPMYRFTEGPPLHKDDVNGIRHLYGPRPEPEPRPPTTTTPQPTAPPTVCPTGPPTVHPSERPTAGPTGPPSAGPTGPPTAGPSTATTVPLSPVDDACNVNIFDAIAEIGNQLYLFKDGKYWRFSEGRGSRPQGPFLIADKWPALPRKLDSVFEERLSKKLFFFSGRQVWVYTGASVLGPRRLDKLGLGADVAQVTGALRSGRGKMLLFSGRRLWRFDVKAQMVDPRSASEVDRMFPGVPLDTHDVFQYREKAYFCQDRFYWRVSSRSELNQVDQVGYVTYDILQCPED

Take `COc1cc2sc(CNC(=O)C3(CC(=O)O)Cc4ccccc4C3)nc2cc1OCCC[N+](C)(C)C` [Compound 12]: the IC50 in series [1] is more than 200 µM. The fraction unbound at 4 h, 10 μM in series [2] was 0.24. The “LasB activity in culture supernatant (Sub115 hydrolysis)” value in series [3] was “complete abolition of activity”. In addition, in series [4], the “ELF concentration (C0) relative to LasB Ki” value is on record as “over 100 fold”, the Kp was 0.095, the C0 was determined as 2700 ng/mL and the AUC(0-t) turned out to be 57700 ng·h/mL. For the same compound, in series [4], the clearance stood at 1.5 mL/min/kg, the half-life is 25.8 h and the “lung penetration (AUClast plasma/AUClast ELF)” value is recorded as 9.54%.

In the case of `COc1cc2sc(CNC(=O)C3(CC(=O)O)Cc4cc(F)c(F)cc4C3)nc2cc1OCCC[N+](C)(CCO)CCO` [Compound 16], the IC50 in series [1] is more than 200 µM. Besides, in series [2], the fraction unbound at 4 h, 10 μM is 0.18. For the same compound, the “LasB activity in culture supernatant (Sub115 hydrolysis)” value in series [3] was “complete abolition of activity”. Also, in series [4], the “ELF concentration (C0) relative to LasB Ki” value is given as “over 100 fold”, the Kp stood at 0.052, the C0 stood at 2700 ng/mL and the AUC(0-t) was 27000 ng·h/mL. In series [4], the clearance came out at 5.2 mL/min/kg, the half-life was 9.5 h and the “lung penetration (AUClast plasma/AUClast ELF)” value is recorded as 5.22%.
